In patent publication US11913075B2, “Methods and compositions for detecting and modulating an immunotherapy resistance gene signature in cancer” (The Broad Institute, Inc., priority 2017, dated 2024):

What was measured:
[1] = tested on: IGR37 melanoma cell line (RB-sufficient); experiment: scRNA-seq of IGR37 melanoma cell line before and after abemaciclib for 1 week; type: cell-based; details: IGR37, post-treatment with abemaciclib; 10% before treatment
Experimental: (§1) Applicants performed scRNA-seq on these cell lines before and after treatment with abemaciclib for 1 week (FIG. 41).
(§2) To test this hypothesis, Applicants studied the effect of abemaciclib on the immune resistance program in melanoma cell lines. […] Applicants profiled each cell line with scRNA-seq before and after treatment with abemaciclib for 1 week (FIGS. 49D-E), analyzing over 23,000 cells in these and follow-up conditions (below).
(§3) For droplet-based scRNA-seq, experiments were performed on the 10× Genomics Chromium platform, with the Chromium Single Cell 3′ Library & Gel Bead Kit v2 and Chromium Single Cell 3′ Chip kit v2 according to the manufacturer's instructions in the Chromium Single Cell 3′ Reagents Kits V2 User Guide. Briefly, 6,000 cells were re suspended in PBS supplemented with 0.04% BSA and loaded to each channel. The cells were then partitioned into Gel Beads in Emulsion in the GemCode instrument, where cell lysis and barcoded reverse transcription of RNA occurred, followed by amplification, shearing and 5′ adaptor and sample index attachment.

[2] = tested on: UACC257 melanoma cell line (RB-sufficient); experiment: scRNA-seq of UACC257 melanoma cell line before and after abemaciclib for 1 week; type: cell-based; details: UACC257, post treatment with abemaciclib; 10% prior to treatment
Experimental: as §1, §2, §3

Q: Which results are given for `CCN1CCN(Cc2ccc(Nc3ncc(F)c(-c4cc(F)c5nc(C)n(C(C)C)c5c4)n3)nc2)CC1` [abemaciclib]?
A: cells with exceptionally strong expression of the uICR signature / immune resistance program ("immune resistant" cells) [1]: 2%; cells with exceptionally strong expression of the immune resistance program ("immune resistant" cells) [2]: 1%
